Test results published in patent US5061795A, “Hexa-cyclic compound” (Daiichi Pharmaceutical Co., Ltd., priority 1987, dated 1991).
Converted amounts (≈) assume the structure as drawn. Like-named read-outs stand apart in the source and are kept apart here.

What was measured:
[1] = tested on: Mouse leukemia P388 cells; test: MTT assay on mouse leukemia P388 cells, 72 hours; assay type: cell-based
Description: Mouse leukemia P388 cells, harvested from a pre-culture medium, were suspended in a fresh PRMI 1640 medium supplemented with 10% FCS (GIBCO) and inoculated in a volume of 0.05 ml at 2.5×10^3/ml cells per well in 96-well microplates. Following 24 hour incubation at 37° C. under 5% CO2 and 100 relative humidity, 0.05 ml of the culture medium or a culture medium containing a test compound was dispersed into each well. The cells in the medium were then incubated for 72 hours. At 4 hours before the end of incubation, 0.01 ml of MTT [3-(4,5-dimethylthiazol-2-yl)-2,5-diphenyl-2H-tetrazolium bromide] solution dissolved in phosphate-buffer saline at a concentration of 5 mg/ml was added. After 4 hour exposure with the MTT solution, the reaction was stopped by the addition of 0.2 ml/well of 1M HCl:i-propanol (1:24) followed by thorough mixing. The optical density of the solution was measured by EAR 400 (SLT Labinstruments, Austria) at 540 nm.

[2] = tested on: P388 mouse leukemia cells; test: Growth inhibition of P388 mouse leukemia cells, cell count after 72 hours; assay type: cell-based
Description: A test compound was added to a suspension containing P388 mouse leukemia cells (2×10^4 /ml) and the cells were cultured in 5% CO2 at […]. After 72 hours, the number of the cells were counted to determine the IC50 value.

[3] = tested on: P388 murine leukemia cells; test: Antitumour effect against P388 murine leukemia in male CDF-1 mice (median survival time); assay type: in vivo, mouse; settings: for Mice Survived for 40 days: intraperitoneal on day 1, CDF-1 mice; for T/C (median survival time of treated group against control group): intraperitoneal on day 1, P388 cells inoculated on day 0, CDF-1 mice
Description: P388 murine leukemia cells (1×10^6 /mouse) were inoculated into male CDF-1 mice (5-6 mice per group, age 7-10 weeks, weighing 21-34 g) on day 0, and the test compound was administered intraperitoneally on day 1.
The test compound were dissolved in water or physiological saline after having been converted into sodium salts, or suspended into a physiological saline containing 0.9% benzyl alcohol, 0.4% Tween 80, or 0.5% CMC.
The antitumour effect was evaluated by the percentage of the median survival time of the treated group (T) against that of the control group (C).

[4] = tested on: nucleic acid synthesis; settings: background statement; cited from earlier work
[5] = clinical tests conducted in the United States; cited from earlier work
[6] = repeated in the table of Experimental Example 3, footnote *, read-out: IC50 (in parentheses; value obtained by determination in Experimental Example 2)

Compound	IC50 [1]	IC50 ([2]; cell count, read-out: IC50)	also measured
CC[C@@]1(O)C(=O)OCc2c1cc1n(c2=O)Cc2c-1nc1ccc(CN)c3c1c2CCC3.Cl [Example 33, (s)-4-aminomethyl-9-ethyl-2,3-dihydro-9-hydroxy-1H,12H-benzo[de]pyrano[3',4':6,7]indolizino[1,2-b]quinoline-10,13(9H,15H)-dione hydrochloride]	5.52 ng/mL	–	–
CCC1(O)C(=O)OCc2c1cc1n(c2=O)Cc2c-1nc1ccc(O)c3c1c2CC3 (stereo not shown) [Example 8, 8-ethyl-1,2-dihydro-3,8-dihydroxy-11H-cyclopenta[de]pyrano[3',4':6,7]indolizino[1,2-b]quinoline-9,12(8H,14H)-dione]	–	3.03 ng/mL (≈ 7.76 nM)	–
CCC1(O)C(=O)OCc2c1cc1n(c2=O)Cc2c-1nc1ccc(C)c3c1c2CCN3 (stereo not shown) [Example 4, 9-ethyl-1,2-dihydro-9-hydroxy-4-methyl-3H,12H-pyrano[3',4': 6,7]indolizino[1,2-c]benzo[ij][2,7]naphthilidine-10,13(9H,15H)-dione]	4.46 ng/mL (≈ 11.1 nM)	3.73 ng/mL (≈ 9.25 nM)	IC50 [2, 6]: 3.73 ng/mL (≈ 9.25 nM)
CCC1(O)C(=O)OCc2c1cc1n(c2=O)Cc2c-1nc1ccc(Cl)c3c1c2CCC3 (stereo not shown) [Example 5, 4-chloro-9-ethyl-2,3-dihydro-9-hydroxy-1H,12H-benzo[de]pyrano[3',4':6,7]indolizino[1,2-b]quinoline-10,13(9H,15H)-dione]	–	3.3 ng/mL (≈ 7.8 nM)	–
CCC1(O)C(=O)OCc2c1cc1n(c2=O)Cc2c-1nc1ccc(C)c3c1c2CCO3 (stereo not shown) [Example 2, 9-ethyl-1,2-dihydro-9-hydroxy-4-methyl-12H-pyrano[4,3,2-de]pyrano[3',4':6,7]indolizino[1,2-b]quinoline-10,13(9H,15H)-dione]	–	0.81 ng/mL (≈ 2 nM)	Mice Survived for 40 days ([3]; 480 mg/kg): 4 Out of 6; T/C (median survival time of treated group against control group) ([3]; 480 mg/kg): > 376%
CCC1(O)C(=O)OCc2c1cc1n(c2=O)Cc2c-1nc1cccc3c1c2CCS3 (stereo not shown) [Example 21, 1,2-dihydro-9-ethyl-9-hydroxy-12H-thiino[4,3,2,-de]pyrano[3',4': 6,7]indolizino[1,2-b]quinoline-10,13(9H,15H)-dione]	–	3.41 ng/mL (≈ 8.39 nM)	–
CCC1(O)C(=O)OCc2c1cc1n(c2=O)Cc2c-1nc1ccc(N)c3c1c2CCC3 (stereo not shown) [Example 39, 4-amino-9-ethyl-2,3-dihydro-9-hydroxy-1H,12H-benzo[de]pyrano [3',3':6,7]indolizino[1,2-b]quinoline-10,13(9H,15H)-dione]	2.97 ng/mL (≈ 7.36 nM)	–	–
CCC1(O)C(=O)OCc2c1cc1n(c2=O)Cc2c-1nc1ccc(O)c3c1c2CCC3 (stereo not shown) [Example 1, 9-ethyl-2,3-dihydro-4,9-dihydroxy-1H,12H-benzo[de]pyrano[3',4': 6,7]indolizino[1,2-b]quinoline-10,13(9H,15H)-dione]	3.8 ng/mL (≈ 9.4 nM)	1.47 ng/mL (≈ 3.63 nM)	Mice Survived for 40 days ([3]; 240 mg/kg): 5 Out of 6; T/C (median survival time of treated group against control group) ([3]; 240 mg/kg): > 392%; IC50 [2, 6]: 1.47 ng/mL (≈ 3.63 nM)
CCC1(O)C(=O)OCc2c1cc1n(c2=O)Cc2c-1nc1ccc(C)c3c1c2CCS3 (stereo not shown) [Example 3, 9-ethyl-1,2-dihydro-9-hydroxy-4-methyl-12H-thiino[4,3,2-de]pyrano[3',4':6,7]indolizino[1,2-b]quinoline-10,13(9H,15H)-dione]	–	4.32 ng/mL (≈ 10.3 nM)	Mice Survived for 40 days ([3]; 480 mg/kg): 5 Out of 6; T/C (median survival time of treated group against control group) ([3]; 480 mg/kg): > 400%
CC[C@@]1(O)C(=O)OCc2c1cc1n(c2=O)Cc2c-1nc1ccc(CN)c3c1c2CCO3.Cl [Example 38, (s)-4-aminomethyl-9-ethyl-1,2-dihydro-9-hydroxy-12H-pyrano[4,3,2-de]pyrano[3',4':6,7]indolizino[1,2-b]quinoline-10,13(9H,15H)-dione hydrochloride]	6.36 ng/mL	–	–
CC[C@@]1(O)C(=O)OCc2c1cc1n(c2=O)Cc2c-1nc1ccc(CN)c3c1c2CCS3.Cl [Example 31, (s)-4-aminomethyl-9-ethyl-1,2-dihydro-9-hydroxy-12H-thiino[4,3,2-de]pyrano[3',4':6,7]indolizino[1,2-b]quinoline-10,13(9H,15H)-dione hydrochloride]	3.66 ng/mL	–	–
CC[C@@]1(O)C(=O)OCc2c1cc1n(c2=O)Cc2c-1nc1ccc(CNC)c3c1c2CCS3.Cl [Example 36, (s)-9-ethyl-1,2-dihydro-9-hydroxy-4-methylaminomethyl-12H-thiino[4,3,2-de]pyrano[3',4':6,7]indolizino[1,2-b]quinoline-10,13(9H,15H)-dione hydrochloride]	12.2 ng/mL	–	–
CCC1(O)C(=O)OCc2c1cc1n(c2=O)Cc2c-1nc1ccc(C#N)c3c1c2CCS3 (stereo not shown) [Example 16, 4-cyano-1,2-dihydro-9-ethyl-9-hydroxy-12H-thiino[4,3,2-de]pyrano[3',4':6,7]indolizino[1,2-b]quinoline-10,13(9H,15H)dione]	–	7.23 ng/mL (≈ 16.8 nM)	Mice Survived for 40 days ([3]; 60 mg/kg): 4 Out of 6; T/C (median survival time of treated group against control group) ([3]; 60 mg/kg): 443%
CC[C@@]1(O)C(=O)OCc2c1cc1n(c2=O)Cc2cc3ccccc3nc2-1 [Camptothecin]	–	–	antitumour activity [4]: known to exhibit an antitumour activity because of its capability of inhibiting nucleic acid synthesis; safety in clinical tests [5]: found to have a problem in view of safety
CCC1(O)C(=O)OCc2c1cc1n(c2=O)Cc2c-1nc1ccc(N)c3c1c2CCS3 (stereo not shown) [Example 20, 4-amino-1,2-dihydro-9-ethyl-9-hydroxy-12H-thiino[4,3,2,-de]pyrano[3',4': 6,7]indolizino [1,2-b]quinoline-10,13(9H,15H)-dione]	–	0.92 ng/mL (≈ 2.18 nM)	–
CCC1(O)C(=O)OCc2c1cc1n(c2=O)Cc2c-1nc1ccc(O)c3c1c2CCO3 (stereo not shown) [Example 11, 9-ethyl-1,2-dihydro-4,9-dihydroxy-12H-pyrano[4,3,2-de]pyrano[3',4':6,7]indolizino[1,2-b]quinoline-10,13(9H,15H)-dione]	4.05 ng/mL (≈ 9.97 nM)	2.64 ng/mL (≈ 6.5 nM)	IC50 [2, 6]: 2.64 ng/mL (≈ 6.5 nM)
